Results reported in ChEMBL document CHEMBL4673230, “Total Synthesis of Natural Lembehyne C and Investigation of Its Cytotoxic Properties” (J Nat Prod, 2020).
Active and inactive are the calls of the source. The rule behind the calls is not given here.

Legend:
[1] = Effect on total JNK in human jurkat cells at 400 nM by magnetic bead based immunoassay; type: cell-based; details: 0.4 µM
[2] = Effect on total p70S6K level in human jurkat cells at 400 nM by magnetic bead based immunoassay; type: cell-based; details: 0.4 µM
Jurkat [3] = experiment: Induction of ROS generation in human Jurkat cells assessed as apoptotic cells with clear mitochondrial damages at 200 nM after 4 hrs by MitoSox Red/annexin V-CF488A staining based flow cytometric analysis (reference value: 0.39%); type: functional
Jurkat [4] = experiment: Induction of cell cycle arrest in human Jurkat cells assessed as accumulation at super-G2 phase at 400 nM after 24 hrs by Guava Cell Cycle reagent based flow cytometric analysis relative to control; type: functional
[5] = Effect on total STAT3 level in human jurkat cells at 400 nM by magnetic bead based immunoassay; type: cell-based; details: 0.4 µM
Jurkat [6] = experiment: Cytotoxicity against human Jurkat cells assessed as reduction in cell viability by 7-AAD staining based flow cytometric analysis; type: functional
Jurkat [7] = experiment: Induction of apoptosis in human Jurkat cells assessed as late apoptotic cells at 100 nM after 24 hrs by Annexin V/7-AAD staining.based flow cytometric analysis relative to control; type: functional
HL-60 = experiment: Cytotoxicity against human HL-60 cells assessed as reduction in cell viability by 7-AAD staining based flow cytometric analysis; type: functional
Jurkat [8] = experiment: Induction of cell cycle arrest in human Jurkat cells assessed as accumulation at G1 phase at 400 nM after 24 hrs by Guava Cell Cycle reagent based flow cytometric analysis relative to control; type: functional
Jurkat [9] = experiment: Induction of cell cycle arrest in human Jurkat cells assessed as accumulation at G2/G1 phase at 100 nM after 24 hrs by Guava Cell Cycle reagent based flow cytometric analysis relative to control; type: functional
[10] = Effect on total ERK1/2 level in human jurkat cells at 400 nM by magnetic bead based immunoassay; type: cell-based; details: 0.4 µM
Jurkat [11] = experiment: Induction of apoptosis in human Jurkat cells assessed as late apoptotic cells at 400 nM after 24 hrs by Annexin V/7-AAD staining.based flow cytometric analysis relative to control; type: functional
Jurkat [12] = experiment: Induction of cell cycle arrest in human Jurkat cells assessed as accumulation at G1 phase at 50 nM after 24 hrs by Guava Cell Cycle reagent based flow cytometric analysis relative to control; type: functional
Jurkat [13] = experiment: Induction of cell cycle arrest in human Jurkat cells assessed as accumulation at super-G2 phase at 200 nM after 24 hrs by Guava Cell Cycle reagent based flow cytometric analysis relative to control; type: functional
Jurkat [14] = experiment: Induction of cell cycle arrest in human Jurkat cells assessed as accumulation at sub-G1 phase at 200 nM after 24 hrs by Guava Cell Cycle reagent based flow cytometric analysis relative to control; type: functional
Jurkat [15] = experiment: Induction of DNA damage in human Jurkat cells assessed as increase in H2Ax phosphorylation at 0.4 uM after 2 hrs by Alexa Fluor555 staining based flow cytometric analysis; type: functional, cell-based
Jurkat [16] = experiment: Induction of ROS generation in human Jurkat cells assessed as living undamaged cells at 200 nM after 2 hrs by MitoSox Red/annexin V-CF488A staining based flow cytometric analysis (reference value: 95.44%); type: functional
Jurkat [17] = experiment: Induction of apoptosis in human Jurkat cells assessed as necrotic cells at 50 nM after 24 hrs by Annexin V/7-AAD staining.based flow cytometric analysis relative to control; type: functional
Jurkat [18] = experiment: Induction of cell cycle arrest in human Jurkat cells assessed as accumulation at S phase at 50 nM after 24 hrs by Guava Cell Cycle reagent based flow cytometric analysis relative to control; type: functional
[19] = Effect on total CREB level in human jurkat cells at 400 nM by magnetic bead based immunoassay; type: cell-based; details: 0.4 µM
Jurkat [20] = experiment: Induction of cell cycle arrest in human Jurkat cells assessed as accumulation at S phase at 100 nM after 24 hrs by Guava Cell Cycle reagent based flow cytometric analysis relative to control; type: functional
Jurkat [21] = experiment: Induction of ROS generation in human Jurkat cells assessed as apoptotic cells with clear mitochondrial damages at 200 nM after 24 hrs by MitoSox Red/annexin V-CF488A staining based flow cytometric analysis (reference value: 0.39%); type: functional
Jurkat [22] = experiment: Induction of cell cycle arrest in human Jurkat cells assessed as accumulation at G2/G1 phase at 50 nM after 24 hrs by Guava Cell Cycle reagent based flow cytometric analysis relative to control; type: functional
Jurkat [23] = experiment: Induction of cell cycle arrest in human Jurkat cells assessed as accumulation at G2/G1 phase at 200 nM after 24 hrs by Guava Cell Cycle reagent based flow cytometric analysis relative to control; type: functional
Jurkat [24] = experiment: Induction of apoptosis in human Jurkat cells assessed as early apoptotic cells at 200 nM after 24 hrs by Annexin V/7-AAD staining.based flow cytometric analysis relative to control; type: functional
Jurkat [25] = experiment: Induction of cell cycle arrest in human Jurkat cells assessed as accumulation at super-G2 phase at 100 nM after 24 hrs by Guava Cell Cycle reagent based flow cytometric analysis relative to control; type: functional
Jurkat [26] = experiment: Induction of mitochondrial membrane potential loss in human Jurkat cells assessed as early apoptotic cells at 400 nM after 4 hrs by MitoSense Red/7-AAD. flow cytometric analysis relative to control; type: functional
Jurkat [27] = experiment: Induction of mitochondrial membrane potential loss in human Jurkat cells assessed as live cells at 400 nM after 4 hrs by MitoSense Red/7-AAD. flow cytometric analysis relative to control; type: functional
Jurkat [28] = experiment: Induction of cell cycle arrest in human Jurkat cells assessed as accumulation at G2 phase at 200 nM after 24 hrs by Guava Cell Cycle reagent based flow cytometric analysis relative to control; type: functional
Jurkat [29] = experiment: Induction of apoptosis in human Jurkat cells assessed as necrotic cells at 400 nM after 24 hrs by Annexin V/7-AAD staining.based flow cytometric analysis relative to control; type: functional
Jurkat [30] = experiment: Induction of apoptosis in human Jurkat cells assessed as early apoptotic cells at 50 nM after 24 hrs by Annexin V/7-AAD staining.based flow cytometric analysis relative to control; type: functional
[31] = Effect on total AKT level in human jurkat cells at 400 nM by magnetic bead based immunoassay; type: cell-based; details: 0.4 µM
Jurkat [32] = experiment: Induction of mitochondrial membrane potential loss in human Jurkat cells assessed as late apoptotic cells at 200 nM after 4 hrs by MitoSense Red/7-AAD. flow cytometric analysis relative to control; type: functional
Jurkat [33] = experiment: Induction of mitochondrial membrane potential loss in human Jurkat cells assessed as live cells at 200 nM after 4 hrs by MitoSense Red/7-AAD. flow cytometric analysis relative to control; type: functional
Jurkat [34] = experiment: Induction of ROS generation in human Jurkat cells assessed as mitochondria damaged cells at 200 nM after 24 hrs by MitoSox Red/annexin V-CF488A staining based flow cytometric analysis (reference value: 0%); type: functional
Jurkat [35] = experiment: Induction of ROS generation in human Jurkat cells assessed as mitochondria damaged cells at 200 nM after 4 hrs by MitoSox Red/annexin V-CF488A staining based flow cytometric analysis (reference value: 0%); type: functional
U-937 = experiment: Cytotoxicity against human U937 cells assessed as reduction in cell viability by 7-AAD staining based flow cytometric analysis; type: functional
Jurkat [36] = experiment: Induction of cell cycle arrest in human Jurkat cells assessed as accumulation at sub-G1 phase at 400 nM after 24 hrs by Guava Cell Cycle reagent based flow cytometric analysis relative to control; type: functional

## C#C[C@H](O)CCCCCCCCC/C=C\CC/C=C\CC/C=C\CCCCCCCCCCCCCCCC
[1]
  Activity: Toxic
[2]
  Activity: Toxic
Jurkat [3]
  Activity: 25.4%
Jurkat [4]
  Activity: 1.85%
[5]
  Activity: Toxic
Jurkat [6]
  IC50: 0.161 µM
Jurkat [7]
  Activity: 39.78%
HL-60
  IC50: 0.093 µM
Jurkat [8]
  Activity: 30.24%
Jurkat [9]
  Activity: 1.94%
[10]
  Activity: Toxic
Jurkat [11]
  Activity: 50.24%
Jurkat [12]
  Activity: 44.65%
Jurkat [13]
  Activity: 0.91%
Jurkat [14]
  Activity: 18.01%
Jurkat [15]
  Activity: inactive
Jurkat [16]
  Activity: 70.77%
Jurkat [17]
  Activity: 2.4%
Jurkat [18]
  Activity: 27.85%
[19]
  Activity: Toxic
Jurkat [20]
  Activity: 30.33%
Jurkat [21]
  Activity: 20.58%
Jurkat [22]
  Activity: 1.91%
Jurkat [23]
  Activity: 1.91%
Jurkat [24]
  Activity: 13.2%
Jurkat [25]
  Activity: 1.21%
Jurkat [26]
  Activity: 3.32%
Jurkat [27]
  Activity: 63.45%
Jurkat [28]
  Activity: 8.65%
Jurkat [29]
  Activity: 1.01%
Jurkat [30]
  Activity: 14.25%
[31]
  Activity: Toxic
Jurkat [32]
  Activity: 0.84%
Jurkat [33]
  Activity: 95.64%
Jurkat [34]
  Activity: 0%
Jurkat [35]
  Activity: 0.16%
U-937
  IC50: 0.124 µM
Jurkat [36]
  Activity: 16.56%
